Measured values as given in ChEMBL document CHEMBL3507680, “University of Dundee, Gates Library screen for HepG2 cell viability”.

Experiment: Human HepG2 cell viability assay in 384 well format
Type: toxicity, cell-based
Set-up: dose 125 nL, time 70.5 hour; cytotoxicity at 70.5 h: concentration not given beside the values
Conditions: HepG2 cells, read-out: Inhibition

SMILES | cytotoxicity at 70.5 h [%]
O=C(c1cccn1Cc1cccs1)N1CCN(C2CC2)CC1 | -10.4
Cn1cccc1CNCc1nnc2n1CCCC2C(F)(F)F (centres undefined) | -5.37
COCC(=O)N1CCc2[nH]c(=O)ccc2C1 | -8.99
CCN(CC)C(=O)COc1ccnc2cc(OC)ccc12 | -19.4
Cc1c(C(=O)NCC(C)C)nnn1-c1cccc2c1CCN(CCO)C2 | -2.54
CNC(=O)c1sc2ccccc2c1C1CCN(c2nc(C)cc(C)n2)C1 (centres undefined) | -6.07
COCc1ncn(Cc2nc(-c3ccc(OC)c(OC)c3)oc2C)n1 | 27.5
Cc1cs/c(=N\C(=O)Cn2nc(N3CCOCC3)ccc2=O)[nH]1 | -13.8
COCC1c2nnn(CC3CC3)c2CCN1C(=O)c1ccncn1 (centres undefined) | 9.24
CCCc1ccc(S(=O)(=O)Nc2ccc(=O)n(C)c2)cc1 | 22.8
O=C(c1ccc(N2CCCC2)nn1)N1CCCc2ccc(F)cc21 | 8.25
CC(=O)N1CCO[C@@H]2CN(Cc3ccccc3Cl)C[C@@H]2C1 | -5.68
COc1ccccc1-n1cc(CN2CCN(C)[C@@H]3CS(=O)(=O)C[C@@H]32)cn1 | -7.42
Cc1nc(C)n(CC2CCCN2Cc2cnc(C)s2)n1 (centres undefined) | -8.97
CN1CC(c2ccccc2)CC2(CCN(Cc3ncc[nH]3)CC2)C1 (centres undefined) | -9.18
COc1ccc(F)c(CN2CCCC(O)(CNCC(C)(C)C)C2=O)c1 (centres undefined) | 13.1
CN1CC[C@H](c2nnc(-c3cncn3C)o2)C1 | -0.523
Cc1nnc(CNC(C)c2cc(C)c(F)c(C)c2)s1 (centres undefined) | -5.2
Cc1nc(COc2ccc(CNCCn3cccn3)cc2)cs1 | 4.56
O=C(CC(F)(F)F)N1C[C@@H]2CC[C@H](C1)N(Cc1ccccc1)C2=O | -9.7
O=C(CC1CC1)N1Cc2nccn2CC(COc2cccnc2)C1 (centres undefined) | -14.7
CCc1cc(C(=O)N2CCC3(CCCN(CCOC)C3=O)C2)cs1 (centres undefined) | -9.21

SMILES | cytotoxicity at 70.5 h [%]
O=C(Nc1ccc(-c2cnc(NCCO)nc2)cc1)[C@@H]1CCCCN1 | -3.46
CCc1ccc(C2CC(=O)Nc3c2c(=O)[nH]n3C(C)C)cc1 (centres undefined) | 0.136
N#Cc1cccc(CN(CC(=O)N2CCCC2)CC2CCCO2)c1 (centres undefined) | 0.804
Cc1cnn(CCNCc2csc(-c3ccc(C(N)=O)cc3)n2)c1 | -1.79
CC(C)CN1CC(C(=O)NCCOc2ccc3c(c2)OCO3)CC1=O (centres undefined) | 3.51
Cc1ccc(CS(=O)(=O)CC(=O)NCc2ccccc2F)cc1 | -15.5
CCN(CC)S(=O)(=O)c1ccc2c(c1)N(Cc1cccnc1)C(=O)CS2 | -4.53
O=C(O)[C@@H]1CN(C(=O)c2ccc(O)cc2)C[C@H]1c1cccc(F)c1 | 14.4
Cc1nnc(SCCNC(=O)CC2CCc3ccccc32)s1 (centres undefined) | -4.12
O=C(c1ccc[nH]1)N1CCO[C@H]2CC(COCc3ccccn3)C[C@@H]21 (some centres undefined) | 2.76
CCc1cnc(N2C[C@@H]3[C@@H](C(=O)NC(C)C)CCS(=O)(=O)[C@@H]3C2)nc1 | 0.524
c1ccc(-c2nn3c(CN4CCOCC4)nnc3s2)nc1 | -3.21
Cc1cccc(NC(=O)c2sccc2C)n1 | 36.7
O=C1C(NCc2ccccc2O)CCN1Cc1ccccc1 (centres undefined) | 18.3
CC(C)c1noc(CN(Cc2cccnc2)C2CN3CCC2CC3)n1 (centres undefined) | 52.5
COc1ccccc1NC(=O)c1[nH]nc(C(C)C)c1Br | -3.43
CCN(C(=O)C1Cc2cc(Cl)ccc2O1)C1CC1 (centres undefined) | -2.35
COc1ccc(F)c(F)c1CN1CCC2(CC1)[C@H](O)C[C@@H]2OCCN | -7.39
COCCNC(=O)[C@H]1C[C@@H]2CCN(Cc3ccoc3)C[C@H]2O1 | -15.5
O=C(C1CCC1)N1CCC2(COCc3cnc(-c4cccnc4)nc32)C1 (centres undefined) | -3.5
CCN1CCOC(CNCc2ccc(OCc3ccccn3)cc2)C1 (centres undefined) | -6.17
Clc1cc(Cl)cc(CN2CCC(NCc3cc[nH]n3)CC2)c1 | -4.79
